≈ marks a conversion by molar mass, not a printed value.
How the values were obtained:
Format in all cases: cell-based
P. aeruginosa ATCC 27853 = experiment: MIC by broth microdilution, BLI alone; conditions: Pseudomonas aeruginosa, ATCC27853, read-out: Minimal Inhibitory Concentrations (MIC) of selected BLIs
Method: (§1) MICs were determined by the broth microdilution method in accordance with Clinical and Laboratories Institute (CLSI) guidelines. In brief, fresh overnight bacterial cultures were suspended in sterile saline, and adjusted to a 0.5 McFarland turbidity standard. Bacterial suspensions were then diluted in cation adjusted Mueller-Hinton Broth (MHB II; BBL) to yield a final inoculum of approximately 5×10^5 colony-forming units (CFU)/mL. A master plate of antibiotics was prepared at a concentration equivalent to hundred-fold the highest desired final concentration in 100% dimethyl sulfoxide (DMSO). The master antibiotic plate was then diluted by serial twofold dilution with a multichannel pipette. The resulting dilution series of compounds were diluted 1:10 with sterile water or a solution of beta-lactamase inhibitor prepared at a concentration equivalent to eleven-fold the desired final concentration in deionized water leading to a 10% DMSO final concentration. A volume of 10 μL of the drug dilution series was transferred to 96-well assay plates. Assay plates were inoculated with 90 μL of bacterial suspensions and incubated at 35° C. for 20 hrs. The assay plates were read using a microtiter plate reader (Molecular Devices) at 600 nm as well as by visual observation with a reading mirror. The lowest concentration of the compound that prevented visible growth was recorded as the MIC. Performance of the assay was monitored by testing aztreonam against laboratory quality control strains in accordance with guidelines of the CLSI.

K. pneumoniae ATCC 43816 = experiment: MIC by broth microdilution, BLI alone; conditions: Klebsiella pneumoniae, ATCC43816, read-out: Minimal Inhibitory Concentrations (MIC) of selected BLIs
Method: as §1

E. coli ATCC 25922 = experiment: MIC by broth microdilution, BLI alone; conditions: Escherichia coli, ATCC25922, read-out: Minimal Inhibitory Concentrations (MIC) of selected BLIs
Method: as §1

[1] = test system: K. pneumoniae NB29323 (CTX-M-15, OXA-48, VEB-1); conditions: AZ + BLI at 2 μg/mL
Method: as §1
(§2) Synergy or potentiation of beta-lactam antibiotics through inhibition of Q-lactamases was assessed against an isogenic panel of E. coli strains, each expressing a unique beta-lactamase, and against clinical strains.

E. coli (TEM-10) = experiment: microbe, parasite or virus in culture; conditions: for MIC of aztreonam with beta-lactamase inhibitor: AZ + BLI at 2 μg/mL; for Activity of Beta-Lactam 5 with beta-lactamase inhibitor: Beta-Lactam 5 + BLI at 2 μg/mL; for MIC of ceftazidime with beta-lactamase inhibitor: Ceft + BLI at 2 μg/mL; for MIC of meropenem with beta-lactamase inhibitor: Mero + BLI at 2 μg/mL
Method: as §1, with “MIC.” for “MIC. Performance of the assay was monitored by testing aztreonam against laboratory quality control strains in accordance with guidelines of the CLSI.”
as §2
Construction of E. coli isogenic strains, NB27273-CDY0105 (OXA-18) and NB27273-CDY0048 (TEM-10). […] The gene encoding OXA-18 was then digested with XhoI and EcoRI and inserted into this vector, from which the gene for GIM-1 had been removed with XhoI and EcoRI.
From this template DNA, three fragments were generated by PCR using the following primer pairs;
This fragment was then digested with XbaI and EcoRI and inserted into pBAD-kan which was also cut with the same enzymes.
These final vectors for expression of OXA-18 and TEM-10 were transformed into BW25113 pspB to generate strains NB27273-CDY0105 (expressing OXA-18) and NB27273-CDY0048 (expressing TEM-10).

[2] = test system: Enterobacter cloacae NB25044 (CTX-M-12, ACT, KPC-2); conditions: AZ + BLI at 2 μg/mL
Method: as §1, with “MIC.” for “MIC. Performance of the assay was monitored by testing aztreonam against laboratory quality control strains in accordance with guidelines of the CLSI.”
as §2

E. coli (AmpC) = experiment: microbe, parasite or virus in culture; conditions: for MIC of aztreonam with beta-lactamase inhibitor: AZ + BLI at 2 μg/mL; for Activity of Beta-Lactam 5 with beta-lactamase inhibitor: Beta-Lactam 5 + BLI at 2 μg/mL; for MIC of ceftazidime with beta-lactamase inhibitor: Ceft + BLI at 2 μg/mL; for MIC of meropenem with beta-lactamase inhibitor: Mero + BLI at 2 μg/mL
Method: as §1, §2
The gene encoding AmpC was PCR amplified from the genome of strain P. aeruginosa PAO1 (NB52019) (GenBank ID U5R279) using primer pair E252 (gccCTCGAGggcgaggccccggcggatcgc) (SEQ ID NO: 17) and E253 (tgaGAATTCtcagcgcttcagcggcacct) (SEQ ID NO: 18).
The PCR products were then digested with XhoI and EcoRI and ligated into similarly digested plasmid pAH63-pstS(BlaP). Plasmid pAH63-pstS(BlaP) is a derivative of plasmid pAH63 (J Bacteriol: 183(21): 6384-6393) made by cloning the TEM-1 (bla) promoter and signal peptide encoding region from plasmid pBAD (J Bacteriol. 1995 July 177(14):4121-30) into plasmid pAH63. This fragment was PCR amplified from pBAD using primer pair E192 (ttcaCTGCAGtgaacgttgcgaagcaacggC) (SEQ ID NO:19) and E194 (TCGAggatcctcgagagcaaaaacaggaaggcaaaatgccg) (SEQ ID NO:20), digested with PstI and BamHI and inserted into similarly digested plasmid pAH63. Therefore, expression of beta-lactamases from pAH63-pstS(BlaP) based constructs is constitutive and the signal sequence is provided to direct these proteins to the periplasm. Plasmid pAH63 based vectors are used for insertion into the genome in single copy, however, to provide higher expression levels to allow more sensitive detection of the susceptibility of compounds to the expressed beta-lactamases, the expression inserts contained in these vectors were moved to the replicative multicopy vector pBAD-Kan (J Bacteriol. 1995 July 177(14):4121-30). To accomplish this, the inserts encompassing the beta-lactamase genes, with the associated TEM promoter and signal sequences, were PCR amplified from their corresponding vectors using primer E268 (ccgTCTAGAcggatggcctttttgcgtttc) (SEQ ID NO:21) and E202 (aatcGAATTCttactgaccattaacgcccaagc) (SEQ ID NO:22) for the KPC2 construct, E204 (aatcGAATTCttaacgctgccagtgctcaatc) (SEQ ID NO:23) for the SHV-12 construct and E203 (aatcGAATTCttacagaccgtcggtgacaatc) (SEQ ID NO:24) for the CTX-M-15 construct. These fragments were then digested with XbaI and EcoRI, and each was inserted into pBAD18-kan that had been digested with the same enzymes to generate multicopy vectors expressing KPC-2, SHV-12 and CTX-M-15, respectively. […]

## NC(=O)[C@@H]1CC[C@@H]2CN1C(=O)N2OS(=O)(=O)O [Avibactam]
P. aeruginosa ATCC 27853
  MIC: > 64 µg/mL
K. pneumoniae ATCC 43816
  MIC: 32 µg/mL (≈ 121 µM)
E. coli ATCC 25922
  MIC: 16 µg/mL (≈ 60.3 µM)
[1]
  Activity of aztreonam with beta-lactamase inhibitor: 2 µg/mL
E. coli (TEM-10)
  MIC of aztreonam with beta-lactamase inhibitor: 0.25 µg/mL
  Activity of Beta-Lactam 5 with beta-lactamase inhibitor: 0.125 µg/mL
  MIC of ceftazidime with beta-lactamase inhibitor: 1 µg/mL
  MIC of meropenem with beta-lactamase inhibitor: ≤0.06 µg/mL
[2]
  Activity of aztreonam with beta-lactamase inhibitor: 8 µg/mL
E. coli (AmpC)
  MIC of aztreonam with beta-lactamase inhibitor: ≤0.06 µg/mL
  Activity of Beta-Lactam 5 with beta-lactamase inhibitor: 0.125 µg/mL
  MIC of ceftazidime with beta-lactamase inhibitor: 0.125 µg/mL
  MIC of meropenem with beta-lactamase inhibitor: ≤0.06 µg/mL

## O=C1NC[C@@H]2C[C@@H]3CN(C(=O)N3OS(=O)(=O)[O-])[C@H]12.[Na+] [Example 1, Sodium (4R,5aS,8aS)-2,8-dioxohexahydro-2H-1,4-methanopyrrolo[3,4-d][1,3]diazepin-3(4H)-yl sulfate]
P. aeruginosa ATCC 27853
  MIC: > 64 µg/mL
K. pneumoniae ATCC 43816
  MIC: > 64 µg/mL
E. coli ATCC 25922
  MIC: > 64 µg/mL
[1]
  Activity of aztreonam with beta-lactamase inhibitor: 0.25 µg/mL
E. coli (TEM-10)
  MIC of aztreonam with beta-lactamase inhibitor: 0.125 µg/mL
  Activity of Beta-Lactam 5 with beta-lactamase inhibitor: 0.125 µg/mL
  MIC of ceftazidime with beta-lactamase inhibitor: 0.25 µg/mL
  MIC of meropenem with beta-lactamase inhibitor: ≤0.06 µg/mL
[2]
  Activity of aztreonam with beta-lactamase inhibitor: 4 µg/mL
E. coli (AmpC)
  MIC of aztreonam with beta-lactamase inhibitor: 0.125 µg/mL
  Activity of Beta-Lactam 5 with beta-lactamase inhibitor: 0.25 µg/mL
  MIC of ceftazidime with beta-lactamase inhibitor: 0.25 µg/mL
  MIC of meropenem with beta-lactamase inhibitor: ≤0.06 µg/mL

## O=C(NC1CCNCC1)[C@@H]1CC[C@@H]2CN1C(=O)N2OS(=O)(=O)O [Relebactam]
P. aeruginosa ATCC 27853
  MIC: > 64 µg/mL
K. pneumoniae ATCC 43816
  MIC: > 64 µg/mL
E. coli ATCC 25922
  MIC: > 64 µg/mL
[1]
  Activity of aztreonam with beta-lactamase inhibitor: 8 µg/mL
E. coli (TEM-10)
  MIC of aztreonam with beta-lactamase inhibitor: 2 µg/mL
  Activity of Beta-Lactam 5 with beta-lactamase inhibitor: 0.25 µg/mL
  MIC of ceftazidime with beta-lactamase inhibitor: 8 µg/mL
  MIC of meropenem with beta-lactamase inhibitor: ≤0.06 µg/mL
[2]
  Activity of aztreonam with beta-lactamase inhibitor: >64 µg/mL
E. coli (AmpC)
  MIC of aztreonam with beta-lactamase inhibitor: 0.125 µg/mL
  Activity of Beta-Lactam 5 with beta-lactamase inhibitor: 0.25 µg/mL
  MIC of ceftazidime with beta-lactamase inhibitor: 0.125 µg/mL
  MIC of meropenem with beta-lactamase inhibitor: ≤0.06 µg/mL

Reference: patent publication US10065957B2, “Beta-lactamase inhibitors” (Novartis AG, priority 2016, dated 2018)
